Test results as given in patent publication US20230257355A1, “HYDROXAMIC ACID-CONTAINING COMPOUND, AND PREPARATION METHOD AND USE THEREOF” (CHINA PHARMACEUTICAL UNIVERSITY, priority 2020, published 2023).

Legend:
[1] = target: T1, ASM (Homo sapiens, UniProt P17405); assay: Inhibition of compounds on ASM activity (cell protein extract, fluorescently-labeled substrate); assay type: biochemical; details: for IC50: protein extracted from cultivated cells, fluorescently-labeled substrate
T1 construct: A protein in cultivated cells was extracted, a buffer and a fluorescently-labeled reaction substrate were added; endogenous in cells
T1 sequence (P17405 47-631): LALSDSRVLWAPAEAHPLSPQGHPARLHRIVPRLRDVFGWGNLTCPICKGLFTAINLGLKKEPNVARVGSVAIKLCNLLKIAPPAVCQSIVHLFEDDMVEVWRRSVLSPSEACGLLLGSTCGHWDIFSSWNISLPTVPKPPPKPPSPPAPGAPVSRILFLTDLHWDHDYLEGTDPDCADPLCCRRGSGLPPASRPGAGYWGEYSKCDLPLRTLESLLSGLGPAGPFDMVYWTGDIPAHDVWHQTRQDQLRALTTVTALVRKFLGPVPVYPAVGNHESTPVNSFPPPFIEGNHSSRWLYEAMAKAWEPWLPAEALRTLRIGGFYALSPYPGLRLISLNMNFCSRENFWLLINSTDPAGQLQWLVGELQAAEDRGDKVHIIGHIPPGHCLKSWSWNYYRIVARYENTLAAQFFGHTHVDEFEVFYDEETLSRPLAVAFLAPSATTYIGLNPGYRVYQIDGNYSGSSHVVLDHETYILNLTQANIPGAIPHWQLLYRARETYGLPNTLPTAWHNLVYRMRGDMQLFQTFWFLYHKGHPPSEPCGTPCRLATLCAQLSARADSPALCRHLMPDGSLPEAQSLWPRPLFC
Experimental: ASM can hydrolyze sphingomyelin to produce ceramides in cells. For a specified amount of a fluorescently-labeled reaction substrate (Avanti Corporation, USA), different ASM activities catalyze the generation of a product at different amounts. Thus, an ASM activity level can be investigated by detecting a product content. The experiment design of the present disclosure is carried out according to the above principle.
A blank control group was set. After the reaction was completed, fluorescence analysis was performed, and finally an IC50 value of the compound was calculated.
A blank control group was set. After the reaction was completed, fluorescence analysis was performed.

[2] = system: ApoE-knockout mice AS model; assay: Plasma lipid indexes in ApoE-knockout AS mice; assay type: in vivo; details: versus non-administration Control group
Experimental: (§1) The mice were randomly divided into 6 groups, with 5 mice in each group. The groups were intraperitoneally injected respectively with a blank solvent, a blank solvent, 12 mg/kg compound I-1, and 40 mg/kg compound I-1 once every day for 8 weeks. After the experiment was completed, the animals were sacrificed and main arteries were collected.

[3] = system: chronic depression rat model established by reserpine; assay: Open field test (OFT) in reserpine chronic depression rat model; assay type: in vivo; details: rats
Experimental: (§2) In the present disclosure, a chronic depression rat model was established by reserpine (reference: NeurotoxRes, 2014, doi: 10.1007/s12640-013-9454-8). Specific experimental steps were as follows: In a normal group, 8 rats were randomly selected and raised normally. Rats in the remaining groups each were injected intraperitoneally with reserpine at 0.2 mg/kg once every day for three days. Rats in the remaining groups each were intraperitoneally injected with the compound I-1 at different doses (3 mg/kg, 6 mg/kg, and 12 mg/kg), a positive drug amitriptyline (6 mg/kg), or no drug. Two weeks after the administration, the OFT was performed (reference: China Pharmacy, 2016, 27 (19): 2697-2699), and after the OFT was completed, the SPT was performed.

[4] = system: ApoE-knockout mice AS model; assay: Anti-AS effect: aortic plaque area in ApoE-knockout mice on high-fat diet; assay type: in vivo
Experimental: as §1, with “collected. The main arterial vessels were directly observed and photographed under a microscope. […] The collected arterial vessels were subjected to lipid staining with ORO and then photographed under a microscope, and image analysis was performed.” for “collected.”

[5] = system: chronic depression rat model established by reserpine; assay: Sucrose preference test (SPT) in reserpine chronic depression rat model; assay type: in vivo; details: rats
Experimental: as §2, with “performed. After the OFT was completed, all rats were first trained to drink 10 g/L sucrose-containing water. That is, tap water was replaced with 10 g/L sucrose-containing water within the first 48 h, then the water and food were deprived for 20 h, and then 10 g/L sucrose-containing water was provided for drinking and the drinking amount within 24 h was calculated.” for “performed.”

[6] = i.p. 3, 6, 12 mg/kg, two weeks after administration

| inhibition at 1 µM [1] [%] | inhibition at 10 µM [1] [%] | IC50 [1] [µM] | SMILES | also measured |
| --- | --- | --- | --- | --- |
| 69 | 88 |  | COc1ccc(COc2ccc(-n3ccc4ccc(C(=O)NO)cc43)cc2)cc1 [II-2, 1-(4-((4-methoxybenzyl)oxy)phenyl)-N-hydroxy-1H-indole-6-carboxamide] |  |
| 80 | 93 |  | O=C(NO)c1ccc2ncn(-c3ccc(OCc4cc(C(F)(F)F)cc(C(F)(F)F)c4)cc3)c2c1 [Compound I-9] |  |
|  |  | 3.68 | O=C(NO)c1ccc2ncn(-c3ccc(OCc4ccc(C(F)(F)F)cc4)cc3)c2c1 [Compound I-3] |  |
|  |  | 1.24 | O=C(NO)c1ccc2ncn(-c3ccc(OCc4cccc(C(F)(F)F)c4)cc3)c2c1 [Compound I-6] |  |
| 70 | 82 |  | COc1ccc(COc2ccc(-n3cnc4ccc(C(=O)NO)cc43)cc2)cc1 [Compound I-12] |  |
| 24 | 76 |  | O=C(NO)c1ccc2ncn(-c3ccc(OCc4ccc(C(F)(F)F)cn4)cc3)c2c1 [Compound I-14] |  |
| 14 | 22 |  | O=C(NO)c1ccc2ncn(-c3ccc(OCc4ccccn4)cc3)c2c1 [Compound I-13] |  |
|  |  | 0.39 | O=C(NO)c1ccc2ncn(-c3ccc(OCc4ccc(Cl)c(C(F)(F)F)c4)cc3)c2c1 [Compound I-7] |  |
| 20 | 50 |  | O=C(NO)c1ccc2ncn(-c3ccc(OCc4ccc(F)cc4)cc3)c2c1 [Compound I-10] |  |
| 74 | 91 |  | O=C(NO)c1ccc2ccn(-c3ccc(OCc4ccc(C(F)(F)F)cc4)cc3)c2c1 [II-1, 1-(4-((4-trifluoromethylbenzyl)oxy)phenyl)-N-hydroxy-1H-indole-6-carboxamide] |  |
|  |  | 2.78 | O=C(NO)c1ccc2ncn(CCCOCc3ccc(C(F)(F)F)cc3)c2c1 [Compound I-5] |  |
|  |  | 0.47 | O=C(NO)c1ccc2ncn(-c3ccc(OCc4ccc(Cl)cc4)cc3)c2c1 [Compound I-1, 1-(4-((4-chlorobenzyl)oxy)phenyl)-N-hydroxy-1H-benzo[d]imidazole-6-carboxamide] | HDL in plasma [2]: no impact; LDL level in plasma [2]: significantly increased; Total TG in plasma [2]: no impact; Total cholesterol in plasma [2]: no impact; OFT behavioral indexes versus amitriptyline (6 mg/kg) ([3]; high-dose 12 mg/kg i.p.): comparable to that of rats in the amitriptyline control group; OFT frequency of grooming [3, 6]: significantly improved; OFT frequency of upright [3, 6]: significantly improved; OFT times passing the grid [3, 6]: significantly improved; OFT total time in center [3, 6]: significantly improved; Plaque area of AS (ORO lipid staining) ([4]; 12 mg/kg i.p. once daily for 8 weeks): significantly reduce; Plaque area of AS (ORO lipid staining) ([4]; 40 mg/kg i.p. once daily for 8 weeks): significantly reduce; Aortic arch plaque area (direct microscopy) ([4]; i.p. once daily for 8 weeks, different doses (12 and 40 mg/kg)): significantly reduced; SPT effect versus positive control amitriptyline (6 mg/kg) ([5]; high-dose 12 mg/kg i.p.): slightly lower than that of the positive control drug amitriptyline; SPT effect versus model group ([5]; high-dose 12 mg/kg i.p., p < 0.01): significantly different from that of the model group; SPT uptake capacity for sucrose-containing water ([5]; i.p., 10 g/L sucrose water, drinking amount within 24 h): significantly restored |
|  |  | 1.16 | O=C(NO)c1ccc2ncn(-c3ccc(OCc4ccc(C(F)(F)F)cc4C(F)(F)F)cc3)c2c1 [Compound I-8] |  |
| 8 | 83 |  | N#Cc1ccc(COc2ccc(-n3cnc4ccc(C(=O)NO)cc43)cc2)cc1 [Compound I-11] |  |
